# Patent publication US9150528B2, “Compound having detrusor muscle-contracting activity and urethral sphincter muscle-relaxing activity” (ONO PHARMACEUTICAL CO., LTD., priority 2009, dated 2015)
# Columns and labels:
# [1] = system: normal rats; test: Blood pressures and heart rates in normal rats; assay type: in vivo, rat; conditions: oral
# Description: The blood pressures and heart rates of female Wistar rats were measured in accordance with the following procedure. On the day of measurement, indwelling of catheters for blood pressure•heart rate measurement was carried out under anesthesia with ether. The back of the neck of each rat was incised; a feeding catheter (Atom Medical Corporation) filled with heparinized physiological saline was introduced from the back of the neck; the catheter was inserted into the common carotid artery; and the surgical incision was closed. The measurements were carried out in a Bollmann cage under the conscious state, and the evaluations were carried out after confirming that the individual parameters were stabilized. After confirming the stabilization of blood pressure and heart rate, the test compound which was prepared using injectable water containing equimolar NaOH was orally administered at a dose of 5 mL/kg.
# The catheter drawn from the back of the neck was connected to a pressure transducer (DX-200, NIHON KOHDEN CORP.), and the blood pressures and heart rates were measured using an amplifier for pressure measurement (Gould Instrument). The blood pressures and heart rates were recorded using a recorder (LINEARCORDERWR3320, GRAPHTEC). For each individual, rates of increase and decrease in average blood pressure and heart rate before administration and 30, 60, 120, and 180 min after administration were calculated with respect to the values of each individual before administration. Changes in blood pressure and heart rate before and after administration of the test compound were evaluated.
# [2] = system: male rats; test: Digestive symptoms after repeated oral administration; assay type: in vivo, rat; conditions: 0.1 mg/kg oral, repeated for 4 days
# Description: Using male rats, aged 6 weeks, general states of the rats were observed after repeating oral administration of the test compound at a dose of 0.1 mg/kg for 4 days. To a control, injectable water which is a medium was administered.
# [3] = Parallel artificial membrane permeability assay (PAMPA); assay type: in vitro ADME; conditions: sum of pH 5.0, 6.2 and 7.4, 25° C., read-out: membrane permeability coefficients (PAMPA(SUM))
# Description: The permeability of the drugs through artificial membranes was measured by parallel artificial membrane permeability assay (PAMPA) under the following conditions. For the measurements, a PAMPA system (pION) was used. The membrane permeability was evaluated by measuring membrane permeability coefficients at three pH values and summing the values (PAMPA(SUM)(cm/sec)).
# Lipid membrane: GIT-0 (pION)
# Incubation temperature: 25° C.
# Donor: 5% DMSO-containing buffer
# Compound concentration: 50 μmol/L
# [4] = system: human lyophilized liver cells; test: Stability evaluation in lyophilized liver cells; assay type: in vitro ADME; conditions: 37° C.
# Description: KHEM5100 medium which includes human lyophilized liver cells after dissolving (final concentration of living cells: 1×10^6 cells/mL) and the test compound (acetonitrile or methanol solution, final concentration≦1%) was incubated at 37° C. Immediately after reaction and with the passage of reaction time, some portions were sampled from the medium. The concentrations of the test compound in the samples were measured by LC/MS/MS. The residual rate of the test compound relative to immediately after reaction was calculated by the following equation: Residual rate=the concentration of the test compound in the sample after reaction/the concentration of the test compound in the sample immediately after reaction×100(%) The residual rates were plotted on a single logarithmic scale against reaction time to calculate loss rate constants. The test was repeated (n=2), and the obtained values were averaged.
# [5] = system: cynomolgus monkeys; test: Effects on cardiac function in anesthetized cynomolgus monkeys; assay type: in vivo, cynomolgus monkey; conditions: continuous intravenous 30 min
# Description: Cynomolgus monkeys were anesthetized with pentobarbital (at an initial dose of 20-30 mg/kg by intravenous administration; at a dose of 4-5 mg/kg/hr by intravenous continuous administration). A tracheal tube was inserted and experiments were carried out under artificial respiration (fresh air+pure oxygen, ventilatory volume: 10-15 mL/kg, ventilation frequency: 10-15 times/min). In the right lying position, the left thorax was opened between the fourth and fifth intercostal spaces. The […] (the origin of the left anterior descending artery or circumflex branch) and the origin of the ascending main artery were peeled off and transducers for blood flow measurement were located there. The blood flow rates were measured using an electronic blood flowmeter or an ultrasonic blood flowmeter. The blood pressures were measured using a pressure transducer in a state where a catheter was inserted into the right femoral artery. The left ventricular internal pressure was measured in a state where a catheter was inserted from the left carotid artery into the left ventricle. The electrocardiogram was measured using needle electrodes installed in the right armpit and the left thorax. After catheters for administration were inserted into the right and left cephalic veins and femoral veins, the test compound, pentobarbital (under anesthesia) or an aqueous solution (SOLITA T3 containing 1.2% NaHCO3) were administered therethrough. The test compound was continuously administered intravenously 30 min using a continuous infusion system. The blood pressure, left ventricular internal pressure, blood flow rate through the coronary artery and electrocardiogram data were simultaneously inputted to a PowerLab system (LabChart6, AD instruments) to measure/calculate average blood pressure, heart rate, average blood flow rate through the coronary artery, beat volume, stroke volume (beat volume/heart rate), maximum first deviation of the left ventricular internal pressure, total peripheral blood vessel resistance (average blood pressure/beat volume), cardiac performance (average blood pressure x beat volume) and double product (systolic arterial pressure x heart rate), which is indicative of myocardial oxygen consumption.
# The averages of all evaluation parameters for 1 min were obtained before administration, immediately after administration, and 10 min, 20 min and 30 min after administration, and changes of the averages relative to the value measured before administration which is defined as 100% were calculated.
# [6] = system: urinary excretion dysfunction models; test: Urinary excretion dysfunction models, maximal urinary flow rate; assay type: in vivo; conditions: 60 ng/kg/h continuous intravenous, cynomolgus monkey urinary excretion dysfunction model
# From the text: Urinary excretion dysfunction models were constructed in accordance with the following procedure. After anesthesia of cynomolgus monkeys, the region from the suprapubic area to the abdominal area was shaved, followed by fixing in a dorsal position. The shaved region was disinfected and the four legs were fixed. Using an electrosurgical knife, the skin region from the suprapubic area to the umbilical area and the peritoneal membrane were sequentially incised, followed by damage to the pelvic nerve and removal of the uterus. After the surgical operation, viccillin-containing physiological saline was added dropwise to the incised area. The peritoneal membrane and skin of the incised area were sutured with silk threads and disinfected. Viccillin was administered for 7 consecutive days after surgery. Meloxicam was administered once daily for 7 consecutive days to manage pain in the perioperative period.
# The cynomolgus monkeys were seated on monkey chairs, followed by retention of the hands and legs with strings. Injectable water was administered orally, and physiological saline and the test compound (60 ng/kg/h) were continuously administered intravenously to allow urination freely. The maximal urinary flow rate was measured using a urine weighing sensor.
smiles,measurement,setting,value
"C[C@@](O)(C/C=C/[C@H]1CCC(=O)[C@@H]1CCSc1nc(C(=O)O)cs1)CCC(F)=C(F)F [Compound 17, 2-[(2-{(1R,5R)-2-oxo-5-[(1E,4S)-7,8,8-trifluoro-4-hydroxy-4-methyl-1,7-octadien-1-yl]cyclopentyl}ethyl)thio]-1,3-thiazole-4-carboxylic acid]",effect on the blood pressure,[1]; 0.3 mg/kg,no effect
same,effect on the heart rate,[1]; 0.3 mg/kg,no effect
same,effect on the blood pressure,[1]; 1 mg/kg,no effect
same,digestive symptoms such as soft feces,[2],No digestive symptoms
same,"Papp at 4 hr, 50 μmol/L",[3],59.3 ×10⁻⁶ cm/s
same,Residual rate,[4]; Reaction time 0 h,100%
same,Residual rate,[4]; Reaction time 0.5 h,111%
same,Residual rate,[4]; Reaction time 1 h,101%
same,Residual rate,"[4]; Reaction time 1 h, listed as compound 17",100%
same,Residual rate,[4]; Reaction time 2 h,82.2%
same,Residual rate,"[4]; Reaction time 2 h, listed as compound 17",≥ 80%
same,cardiac performance,[5]; 30 ng/kg/min,did not affect
same,double product,[5]; 30 ng/kg/min,did not affect
same,cardiac performance,[5]; 100 ng/kg/min,did not affect
same,double product,[5]; 100 ng/kg/min,did not affect
same,"other cardiac function parameters, including the blood flow rate through the coronary artery",[5],did not affect
same,improvement in maximal urinary flow rate over the vehicle group,[6],61%
